Measurements from US9555057B2, “Compositions and methods for reducing cutaneous microbiome malodor” (The Research Foundation for The State University of New York, priority 2014, dated 2017).

What was measured:
C. striatum (ATCC 43751) = experiment: Kirby-Bauer disk diffusion susceptibility test; type: cell-based, Corynebacterium striatum; settings: at either 1% or 5% levels
Text: (§1) C. striatum and Staph. epidermidis are among the most prevalent bacteria that comprise the human cutaneous microbiota. […] The purpose of this segment was to examine whether formulations arising out of the studies reported in the prior sections that favor the growth and metabolism of Staph. epidermidis as a desirable skin entity that can inhibit the growth of C. striatum, a less desirable entity, and do so when both microorganisms are present initially at the same levels. In this regard, an adaptation of the Kirby-Bauer disk diffusion susceptibility test appeared to be relevant for such determination.
(§2) Here we have grown less than desirable C. striatum and highly desirable Staph. epidermidis, alone and in combination, under a variety of substrate conditions to determine, if the latter micro-organism could be selected over C. striatum and thereby be used as a means of reducing the presence of less desirable odor-producing C. striatum.
(§3) Compositions indicated as possible suppressants of C. striatum and/or enhancers of Staph. epidermidis were based on the prior studies above and for convenience of presentation were categorized as possible active test ingredients and then formulae and mixtures in which they were tested. Accordingly, the total number of compositions tested was eight. Careful attention was paid to sterility throughout in the preparation and handling of the compounds and compositions utilized herein.
(§4) Each of these formulae were prepared at 4 different concentrations: original as in (b), and 1.5, 2.5 and 7.5 times the original concentration. Again, all formulae were prepared under aseptic conditions.
To make compositions 1.5 times the original concentration listed above, formulae 7.5 times the original concentrations were diluted a factor of 5 with sterile distilled water. To make compositions 2.5 times the original concentration listed above, formulae 7.5 times the original concentrations were diluted three-fold with sterile distilled water. To summarize: a total of 3 ingredients, 2 formulae and 2 mixtures were tested. A total of 20 disks were prepared for tests of susceptibility to each bacterial sample and these are outlined in Table 5.2 below:
A TB syringe with a 25-27 G sterile needle was used to help break up the remains of any pellets. […] Plating Procedures • Five bacterial samples of C. striatum and Staph. epidermidis were plated on Blood BHI agar and CHROMagar plates, respectively. • 100 μl of each bacterial sample was inoculated on Blood BHI agar plates by using sterile glass bars and a turning table to facilitate each bacterial sample being spread evenly on each of the agar plates. • Each spread bacterial suspension was allowed to dry on inoculated plates for five minutes. • Paper disks were immersed, respectively, with the above 3 ingredients, 2 formulae and 2 mixtures; absorptions were saturated. • Four disks were placed on each plate with sterile forceps. • Incubated plates within 15 minutes after applying the disks to ensure test was under standardized conditions, where diffusion of the ingredients and formulae and bacterial growth commence at approximately the same time. Plates were incubated at 37° C. for 24 hours. Interpretation of Results
Each strain was determined as resistant, intermediate, or susceptible to the ingredients, formulae and mixtures tested. After 24 hours of incubation at 37° C., the diameter of the zone of growth inhibition around each disk was measured to the nearest whole mm. Plates were carefully examined for well-developed colonies within the zone of inhibition.

[1] = test system: C. striatum, Staph. epidermidis and a mixture of the two; experiment: Growth (colony counts on BHI agar) during 72 hour incubation with CIL, phenylalanine, zinc carbonate with or without arginine bicarbonate; type: cell-based
Description: The bacterial sediments produced upon centrifugation and decantation of the supernatants were stirred and made into a uniform suspension. C. striatum and Staph. epidermidis were mixed with each of C. striatum and Staph. epidermidis at 25% (v/v).
Zinc carbonate was autoclaved and suspended in sterile distilled water. All other stock solutions were sterilized by microbial filtration (Nylon, Sterile filter, pore size […], Fisher Scientific, Fairlawn, N.J. USA).
Difco BHI agar was poured into petri dish plates under sterile conditions and pre-incubated at 37° C. for 24 hours before use to ensure sterility.
The experimental and negative control samples were prepared as follows:
The final concentrations of the bacteria, C. striatum and Staph. epidermidis were each 8.3% (v/v) and the mixture of C. striatum and Staph. epidermidis were 4.15% (v/v) each.
Serial dilution of each of the samples between 10^0 and 10^10 was made. An aliquot of 100 μl from each 10^0 to 10^10 dilution was inoculated onto BHI agar plates. […] Bacterial growth was regularly checked. This was the initial test before the incubation was started.
Four successive diluted samples were selected and grown to proper densities of bacterial colonies on the agar plates; for example, 10^4 to 10^7 were appropriate dilutions for all samples in the instant experiment. Incubation of all samples (experimental and control) were continued at 37° C. for 24, 48 or 72 hours; 100 μl of each sample were taken and chosen at 4 consequent dilutions and inoculated on BHI agar plates for incubation for 24, 48 and 72 hours, respectively. Plating on BHI agar plates and incubation at 37° C. for 24 to 48 hours were carried out and bacterial growth on the BHI agar plates were checked.
The number of bacterial colonies on each plate was assessed. The plates inoculated with the mixture of C. striatum and Staph. epidermidis (i.e., Samples I and IV in the Table of Media compositions above) were counted and the number of colonies of C. striatum and Staph. epidermidis were determined from the photos of the plates.

[2] = test system: Staph. epidermidis (ATCC 12228); experiment: Kirby-Bauer disk diffusion susceptibility test; type: cell-based, Staphylococcus epidermidis; settings: at either 1% or 5%
Text: as §1, §2, §3, §4
To make compositions 1.5 times the original concentration listed above, formulae 7.5 times the original concentrations were diluted a factor of 5 with sterile distilled water. […]
Each strain was determined as resistant, intermediate, or susceptible to the ingredients, formulae and mixtures tested. After 24 hours of incubation at 37° C., the diameter of the zone of growth inhibition around each disk was measured to the nearest whole mm. […]

[3] = test system: mixture of C. striatum and Staph. epidermidis in the ratio of 1 to 1; experiment: Zinc carbonate / arginine bicarbonate on odor and pH, CIL and phenylalanine medium; type: cell-based; settings: for pH after incubation: arginine bicarbonate with zinc carbonate
[4] = test system: C. striatum, Staph. epidermidis or a 1:1 mixture thereof; settings: zinc acetate, CIL and either arginine or arginine bicarbonate, pH 4.0 to 8.0, 4 hours, no phenylalanine
Description: The pH of the medium with each of the different zinc salts needed some adjustment, which was done with 1 M HCl or 1 M NaOH depending upon the pH of the stock solutions of each zinc salt employed.

[5] = pH and solubility of solutions, suspensions and formulae; type: physicochemical; settings: 36 mM (zinc acetate and zinc carbonate also 72 mM)
Staph. epidermidis = experiment: Arginolysis: pH during incubation with arginine; type: cell-based, Staphylococcus epidermidis; settings: 6.0 mM arginine
Description: (§5) Each microorganism was recovered from its frozen state at −70° C. and grown at 37° C. in 10 ml of appropriate and respective culture media for a period between 24 and 48 hours (see Table 1). Incubations were carried out to middle and late exponential stages of bacterial growth under the incubation conditions indicated in Table 1. A 1.5 ml inoculum was transferred therefrom to polypropylene bottles containing 150 ml of the initial growth medium. This was then incubated at 37° C. for 24 to 48 hours. Bacteria were harvested by centrifugation (DuPone, Sorvall, Newtown, Conn.) at 10,000 g and 4° C. for 20 min. The volume of bacterial pellet obtained was between about 2.5 and 3.5 ml. The sediment was then washed with sterile distilled water to remove residual growth medium. This was done by centrifuging the bacterial sediment three times at 1,740 g for 15 min at 4° C. […]

Staph. haemolyticus = experiment: Arginolysis: pH during incubation with arginine; type: cell-based, Staphylococcus haemolyticus; settings: 6.0 mM arginine, 4 hours
Description: as §5

[6] = test system: pure cultures of microorganisms resident on human axillary skin; settings: 6.0 mM arginine; Staph. epidermidis, Staph. haemolyticus and P. avidum
Description: Pure cultures of the numerically most prominent microorganisms normally resident on human axillary skin (see Table 1) were surveyed for their effects on (i) pH, (ii) Eh, (iii) ability to generate malodor and (iv) ability to generate hydrogen peroxide. Four hour incubation experiments were conducted, in which each of a wide range of carbohydrate and amino acid substrates (see Table 1) were surveyed for malodor production and related changes in pH and Eh thereto.
Each microorganism was recovered from its frozen state at −70° C. and grown at 37° C. in 10 ml of appropriate and respective culture media for a period between 24 and 48 hours (see Table 1). Incubations were carried out to middle and late exponential stages of bacterial growth under the incubation conditions indicated in Table 1. A 1.5 ml inoculum was transferred therefrom to polypropylene bottles containing 150 ml of the initial growth medium. This was then incubated at 37° C. for 24 to 48 hours. Bacteria were harvested by centrifugation (DuPone, Sorvall, Newtown, Conn.) at 10,000 g and 4° C. for 20 min. […] The sediment was then washed with sterile distilled water to remove residual growth medium. This was done by centrifuging the bacterial sediment three times at 1,740 g for 15 min at 4° C.
Each pure culture was pre-incubated at 37° C. at pH 7.0 to exhaust or reduce any stored carbohydrate and other carbon/energy sources acquired during growth in culture.
Both of these electrodes were connected to a second pH meter (pH M26 Radiometer Copenhagen NV, Denmark) and used here as a millivoltmeter. For the Eh measurements, when the Eh electrode was immersed in an incubation mixture, each Eh reading was recorded after allowing several seconds for each reading to stabilize. The Eh value was related to that of the hydrogen electrode by adding to each reading the difference between the E0 value for the Red Rod reference element-mercury and hydrogen electrodes—i.e. 270 my at 25° C.
At each time point, the odor was determined organoleptically by immersing a solid glass rod into each incubation mixture, stirring gently 3 times and then removing and carefully smelling the rod after 5 seconds. The intensity of the odor was assessed on a 0 to 4 numerical scale (0—no odor, 1—mild odor, 2—moderate odor, 3—strong odor, and 4—very strong odor).

P. avidum = experiment: Arginolysis: pH during incubation with arginine; type: cell-based, Propionibacterium avidum; settings: 6.0 mM arginine
Description: as §5

N=C(N)NCCC[C@H](N)C(=O)O.O=C(O)O [Arginine bicarbonate, arginine bicarbonate]
Sensitivity of C. striatum (in words) (C. striatum (ATCC 43751)): neither C. striatum nor Staph. epidermidis was susceptible | Decrease of number of colonies ([1]; 12 mM zinc carbonate, CIL, phenylalanine, with versus without 12 mM arginine bicarbonate, 37° C., 72 hours): without arginine bicarbonate decreased sooner | Colonies found in the mixture ([1]; media with arginine bicarbonate, 48 and 72 hours): Only colonies of Staph. epidermidis were discovered | Staph. epidermidis share of colonies in the mixture ([1]; media with arginine bicarbonate, 24 hours, 65% at 0 hours): 90% | Sensitivity of Staph. epidermidis (in words) [2]: neither C. striatum nor Staph. epidermidis was susceptible | pH maintained ([3]; 12.0 mM arginine bicarbonate, CIL and phenylalanine, 37° C., 4 hours): about 8.0 | pH after incubation ([3]; medium originally at pH 6.0): 6.8 | pH after incubation ([3]; medium originally at pH 7.0): 7.8 | pH after incubation ([3]; medium originally at pH 8.0): 8.0 | Sulfurous odor and Eh [4]: No sulfurous odor nor corresponding decrease in the Eh

[Cl-].[Cl-].[Zn+2] [Zinc chloride]
pH of stock solution in de-ionized water [5]: 6.7

N=C(N)NCCC[C@H](N)C(=O)O [arginine]
pH of the incubation mixture (Staph. epidermidis; end of the 4 hours of incubation): 7.7 | pH of the incubation mixture (Staph. epidermidis; start pH 7.0, within the first 15 min): 7.4 | pH reached during arginolysis (Staph. haemolyticus): 8.2 | Odor during arginolysis [6]: No odor of significance | pH rise above the level with Staph. epidermidis (P. avidum): about 0.3 pH units | Sulfurous odor and Eh [4]: No sulfurous odor nor corresponding decrease in the Eh
